Experimental data taken from patent US20020169111A1, “Reversal of multidrug resistance in human colon carcinoma cells” (American Cyanamid Comany, priority 1998, published 2002).
Like-named read-outs stand apart in the source and are kept apart here.

How the values were obtained:
[1] = tested on: MCF/MX cells; assay: Resistance of MCF/MX cells to camptothecins; format: cell-based
[2] = tested on: S1 cells
Description: (§7) Cell-associated radioactivity was measured at the indicated times. Values are mean percentage of drug remaining (triplicate determinations) ± standard deviation.
(§8) After 1 hour, cells were prepared for analysis by scintillation counting. Values shown are mean percentage of drug remaining (triplicate determinations) ± standard deviation.

[3] = tested on: S1-M1-3.2 cells
Description: as §7, §8

[4] = tested on: S1-B1-20 cells
Description: as §7, §8

[5] = tested on: S1-M1-3.2 cells; assay: Cytotoxicity of antitumor agents, 3-day SRB assay, mitoxantrone-selected cells; format: cell-based, human; details: relative to S1; 2-7 independent experiments
Description: Cells were cultured for three days in the presence of the antitumor agent (triplicate points per dose). Following a 3-day growth period, cells were fixed in 10% trichloroacetic acid (TCA) for 1 hour, washed extensively with water, and cell-associated protein was stained using 0.1% sulforhodamine B (SRB), a protein binding reagent [Rubinstein et al., Journal of the National Cancer Institute 82, 1113-1118 (1990) and Skehan et al., Journal of the National Cancer Institute 82, 1107-1112 (1990)]. Excess reagent was removed by washing plates in 5% acetic acid, the dye was solubilized in 10 mM Tris base, and absorbance determined in a UV Max spectrophotometer (Molecular Devices, Menlo Park, Calif.) at 540 nm. Cell survival was estimated relative to control wells (no drugs). EC50 values (μM) were estimated from cytotoxicity curves. For S1, the values shown [mean ±SE (number of independent observations)] are taken from Zhang et al., “P-Glycoprotein Mediates Profound Resistance to Bisantrene,” Oncol. Res., 6:291-301, 1994. Values for S1-M1-3.2 are compiled from 2-7 independent experiments.

[6] = tested on: MCF-7 cells; format: cell-based, human; details: 1 μM daunorubicin, 1 hour retention phase
Description: (§1) All incubations were carried out in the absence or presence of FTC (1 or 5 μM).

[7] = tested on: MCF-7/BCRP cells; format: cell-based, human
Description: as §1

[8] = tested on: S1 cells; assay: Drug accumulation analysis with [14C] drug; format: cell-based, human; details: [14C] drug, 90 minutes at 37° C.
Description: (§2) To determine the mechanism of resistance, drug resistant and sensitive cells were incubated with radioactive analogues of antitumor agents and cell-associated radioactivity was measured by scintillation counting. Alternatively, surrogates of chemotherapeutic drugs may be used. The surrogate has no antitumor activity itself but interacts with the cancer cell proteins such as P-gp or MRP in a similar manner as an anticancer drug. The surrogate chemotherapeutic drug would have a property such as fluorescence which is useful for determining the drug resistance mechanisms such as efflux.
(§3) Cells were plated in 60 mm dishes (1×10^6 cells per dish) or in 24 well clusters (2 ×10^5 cells per well) and allowed to grow for 1-2 days. […] Drugs used were [^14C]-mitoxantrone (Amersham, 1 or 5 μM; specific activity 66 mCi/mmol) or [^14C]-doxorubicin (Amersham, 0.5 or 3 μM; specific activity 50-62 mCi/mmol ). […] Unbound drug was removed by washing twice in ice-cold phosphate buffered saline (PBS), cells were solubilized in 2 N NaOH at 37° C. for 1-2 hours, and analyzed by scintillation counting. Results were normalized to cell protein content measured by a Lowry assay.
(§4) The cells were then washed, solubilized, and counted in a scintillation counter. Values are mean disintegration per minute per μg protein of triplicate determinations ± standard deviation.

[9] = tested on: S1-B1-20 cells; assay: Drug accumulation analysis with [14C] drug; format: cell-based, human; details: [14C] drug, 90 minutes at 37° C.
Description: as §2, §3, §4

[10] = tested on: S1-M1-3.2 cells; assay: Drug accumulation analysis with [14C] drug; format: cell-based, human; details: for Drug Accumulation, no FTC: S1-M1-3.2 cells, [14C] drug, 90 minutes at 37° C.; for drug accumulated compared with the parental cells: S1-M1-3.2 versus S1, no FTC
Description: as §2, §3, §4

[11] = tested on: S1-M1-3.2 cells; assay: Dose modifying factor of FTC (SRB, EC50 ratio); format: cell-based, human; details: S1-M1 versus S1, no reversal agent
Description: (§5) Cell survival was estimated after 3 days using the SRB assay. Cell survival was determined by the SRB assay and EC50 values were determined from toxicity curves. The dose modifying factor (DMF) is the ratio of EC50 values obtained in the absence and presence of reversal agent. Maximum DMF values (shown in parentheses) is the ratio of EC50 values of resistant and sensitive cells in the absence of the reversal agent. This value is obtained when resistance is reversed completely, and is the equivalent of the relative resistance.

[12] = tested on: MCF 7/mtxR cells; format: cell-based, human
Description: as §5
(§6) In order to determine the utility of FTC as a reversal agent in other multidrug resistant cell lines, FTC was tested in two breast cancer cell lines which show a multidrug resistant phenotype with no overexpression of P-gp or MRP.

[13] = tested on: HL-60/AR cells; format: cell-based
Description: as §5

[14] = tested on: MCF-7/BCRP cells; assay: Dose modifying factor of FTC in BCRP-transfected cells; format: cell-based, human; details: MCF-7/BCRP versus MCF-7, no reversal agent
Description: Cell survival was estimated after 3 days using the SRB assay, and EC50 values were determined from cytotoxicity curves.

[15] = tested on: MCF 7/AdVp cells; format: cell-based, human
Description: as §5, §6

[16] = 1 hour efflux with energy depletor, growth medium = 100

CC[C@@]1(O)C(=O)OCc2c1cc1n(c2=O)Cc2cc3c(N)cccc3nc2-1 [9-amino camptothecin]
resistance of MCF/MX cells [1]: 120 fold

[N-]=[N+]=[N-].[Na+] [PBS + sodium azide, sodium azide]
% mitoxantrone remaining in cell line [2, 16]: 137 ± 14%
% mitoxantrone remaining in cell line [3, 16]: 285 ± 43%
% mitoxantrone remaining in cell line [4, 16]: 217 ± 6%

CC[C@@]1(O)C(=O)OCc2c1cc1n(c2=O)Cc2cc3ccccc3nc2-1 [camptothecin]
S1-M1-3.2 (relative resistance) [5]: 2
resistance of MCF/MX cells [1]: 3.2 fold

COc1cccc2c1C(=O)c1c(O)c3c(c(O)c1C2=O)C[C@@](O)(C(C)=O)C[C@@H]3O[C@H]1C[C@H](N)[C@H](O)[C@H](C)O1 [daunorubicin, reference compound]
daunorubicin retention, Channel Number (fluorescence units), No FTC [6]: 15.2 ± 0.39 fluorescence units
daunorubicin retention, Channel Number (fluorescence units), No FTC [7]: 6.8 ± 0.33 fluorescence units

COc1cccc2c1C(=O)c1c(O)c3c(c(O)c1C2=O)C[C@@](O)(C(=O)CO)C[C@@H]3O[C@H]1C[C@H](N)[C@H](O)[C@H](C)O1 [doxorubicin, reference compound]
Drug Accumulation, no FTC [8]: 114 ± 11 DPM/μg protein
Drug Accumulation, no FTC [9]: 23 ± 1 DPM/μg protein
Drug Accumulation, no FTC [10]: 19 ± 3 DPM/μg protein
drug accumulated compared with the parental cells [10]: 17%
[^14C] doxorubicin retention, No FTC ([7]; MCF-7/BCRP, 1 μM [14C]-doxorubicin, 1 hour retention phase): 5.4 ± 0.48 DPM per microgram protein

O=C1c2c(O)ccc(O)c2C(=O)c2c(NCCNCCO)ccc(NCCNCCO)c21 [mitoxantrone]
S1-M1-3.2 (relative resistance) [5]: 1435
Drug Accumulation, no FTC [8]: 2430 ± 252 DPM/μg protein
Drug Accumulation, no FTC [9]: 1086 ± 100 DPM/μg protein
Drug Accumulation, no FTC [10]: 996 ± 57 DPM/μg protein
drug accumulated compared with the parental cells [10]: 41%
Maximum DMF (in parentheses; relative resistance to the antitumor agent) [11]: 1435
Maximum DMF (in parentheses; relative resistance to the antitumor agent) [12]: 114 (2090)
Maximum DMF (in parentheses; relative resistance to the antitumor agent) [13]: 3.3 (53)
Maximum DMF (in parentheses; relative resistance to the antitumor agent) [14]: 35.1
% mitoxantrone remaining over time (hours) ([2]; 0 h): 100 ± 6%
% mitoxantrone remaining over time (hours) ([2]; 0.5 h): 99 ± 17%
% mitoxantrone remaining over time (hours) ([2]; 1 h): 101 ± 3%
% mitoxantrone remaining over time (hours) ([2]; 2 h): 100 ± 11%
% mitoxantrone remaining over time (hours) ([2]; 4 h): 95 ± 13%
% mitoxantrone remaining over time (hours) ([3]; 0 h): 100 ± 2%
% mitoxantrone remaining over time (hours) ([3]; 0.5 h): 51 ± 6%
% mitoxantrone remaining over time (hours) ([3]; 1 h): 44 ± 1%
% mitoxantrone remaining over time (hours) ([3]; 2 h): 45 ± 3%
% mitoxantrone remaining over time (hours) ([3]; 4 h): 31 ± 2%
% mitoxantrone remaining over time (hours) ([4]; 0 h): 100 ± 5%
% mitoxantrone remaining over time (hours) ([4]; 0.5 h): 58 ± 4%
% mitoxantrone remaining over time (hours) ([4]; 1 h): 45 ± 10%
% mitoxantrone remaining over time (hours) ([4]; 2 h): 41 ± 3%
% mitoxantrone remaining over time (hours) ([4]; 4 h): 39 ± 3%

CC(=O)O[C@H]1C(=O)[C@@]2(C)[C@H]([C@H](OC(=O)c3ccccc3)[C@]3(O)C[C@H](OC(=O)[C@H](O)[C@@H](NC(=O)c4ccccc4)c4ccccc4)C(C)=C1C3(C)C)[C@]1(OC(C)=O)CO[C@@H]1C[C@@H]2O [paclitaxel, reference compound]
S1-M1-3.2 (relative resistance) [5]: 6
Maximum DMF (in parentheses; relative resistance to the antitumor agent) [11]: 6
Maximum DMF (in parentheses; relative resistance to the antitumor agent) [15]: 0.7 (10.7)
Maximum DMF (in parentheses; relative resistance to the antitumor agent) [12]: 1.1 (2.0)
Maximum DMF (in parentheses; relative resistance to the antitumor agent) [13]: 2.6 (5.1)
Maximum DMF (in parentheses; relative resistance to the antitumor agent) [14]: 2.7

CC[C@@]1(O)C(=O)OCc2c1cc1n(c2=O)Cc2cc3c(CN(C)C)c(O)ccc3nc2-1 [topotecan, reference compound]
S1-M1-3.2 (relative resistance) [5]: 41
Maximum DMF (in parentheses; relative resistance to the antitumor agent) [11]: 41
Maximum DMF (in parentheses; relative resistance to the antitumor agent) [14]: 3.3
